Publication PMC6438731, “Extrasynaptic δ‐GABAA receptors are high‐affinity muscimol receptors” (Journal of Neurochemistry, 2019)
Like-named read-outs stand apart in the source and are kept apart here.

Tests used:
[1] = target: T1, recombinant α4β3δ receptors (Homo sapiens, UniProt O14764+P28472+P48169); test: Muscimol currents, two electrode voltage clamp in Xenopus oocytes, α4β3δ; assay type: cell-based
T1 construct: expressed in transfected cells; host or cells: Xenopus laevis oocytes injected with cRNA
T1 sequence (P48169 36-554): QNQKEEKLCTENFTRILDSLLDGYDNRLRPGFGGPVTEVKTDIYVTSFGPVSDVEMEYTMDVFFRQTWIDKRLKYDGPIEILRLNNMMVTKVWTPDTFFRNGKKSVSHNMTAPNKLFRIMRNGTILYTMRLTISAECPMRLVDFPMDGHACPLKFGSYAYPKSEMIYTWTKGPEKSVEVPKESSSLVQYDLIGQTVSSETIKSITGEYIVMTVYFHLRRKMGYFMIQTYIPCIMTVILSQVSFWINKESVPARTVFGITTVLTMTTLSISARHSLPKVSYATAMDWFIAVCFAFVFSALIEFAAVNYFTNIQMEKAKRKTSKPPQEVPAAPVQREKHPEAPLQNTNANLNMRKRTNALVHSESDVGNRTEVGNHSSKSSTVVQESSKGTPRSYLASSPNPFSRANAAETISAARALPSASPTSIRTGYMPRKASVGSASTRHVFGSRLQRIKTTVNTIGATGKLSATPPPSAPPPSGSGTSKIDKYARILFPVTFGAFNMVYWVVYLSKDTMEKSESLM
T1 sequence (P28472 26-473): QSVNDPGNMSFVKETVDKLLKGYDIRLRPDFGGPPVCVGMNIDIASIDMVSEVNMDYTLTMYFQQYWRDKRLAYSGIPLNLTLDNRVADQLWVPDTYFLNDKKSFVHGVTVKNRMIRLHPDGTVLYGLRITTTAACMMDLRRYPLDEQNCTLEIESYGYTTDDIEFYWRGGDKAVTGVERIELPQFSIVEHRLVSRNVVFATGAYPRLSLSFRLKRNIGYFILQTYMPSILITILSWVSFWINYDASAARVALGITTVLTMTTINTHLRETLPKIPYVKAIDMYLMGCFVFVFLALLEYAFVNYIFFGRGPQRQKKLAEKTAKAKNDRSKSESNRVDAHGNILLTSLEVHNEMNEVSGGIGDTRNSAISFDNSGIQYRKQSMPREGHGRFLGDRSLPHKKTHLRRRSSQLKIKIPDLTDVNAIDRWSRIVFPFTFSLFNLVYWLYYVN
T1 sequence (O14764 25-452): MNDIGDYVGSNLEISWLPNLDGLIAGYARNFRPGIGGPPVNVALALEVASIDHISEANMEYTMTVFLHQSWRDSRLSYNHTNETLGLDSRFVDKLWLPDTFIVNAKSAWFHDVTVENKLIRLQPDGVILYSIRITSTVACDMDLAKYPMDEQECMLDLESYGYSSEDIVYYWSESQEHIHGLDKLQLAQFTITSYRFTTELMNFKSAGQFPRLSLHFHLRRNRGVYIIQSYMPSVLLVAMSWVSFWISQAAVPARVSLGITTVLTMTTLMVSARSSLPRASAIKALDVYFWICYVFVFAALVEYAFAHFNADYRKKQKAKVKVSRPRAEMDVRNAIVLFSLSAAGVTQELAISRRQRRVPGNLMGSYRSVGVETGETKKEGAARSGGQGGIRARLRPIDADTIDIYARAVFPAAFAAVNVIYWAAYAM
Text: (§1) Human α4, α6, β3, and δ cDNA clones for oocyte expression were made by PCR amplification of the coding region (NcoI site introduced with the amplifying 5′ oligonucleotide at the ATG initiation codon) and a HindIII (or SpeI) containing oligo) and cloning it into a NcoI‐HindIII (or SpeI) cut vector backbone derived from pEGFP‐N1 (Addgene 6085‐1). The entire transcribed region was confirmed by sequencing to ensure that protein sequences conform to consensus sequences found in the RefSeq database (https://www.ncbi.nlm.gov/RefSeq). Plasmids were linearized with NotI (New England Biolabs) and cRNA was transcribed, using T7 RNA polymerase (Ambion, mMESSAGE mMACHINE T7 Transcription Kit, Ambion Austin TX, USA, Cat. No. 1344). Xenopus laevis (Nasco, product number LM00531) oocytes were prepared from oocyte lobes shared by Dr. Olcese (UCLA, Anesthesiology). The oocytes were injected with 2 ng of each α6 and β3 subunit cRNA alone or together with 10 ng δ cRNA. Currents were measured 5–10 days after injection by two electrode voltage clamp using an Axoclamp 2B amplifier and pCLAMP software. Drug solutions were applied in ND96 (in mM 96 NaCl, 2 KCl, 1.8 CaCl2, 1 MgCl2, 5 HEPES pH 7.4) by gravity perfusion with bath exchange time of about 2 s. Muscimol was prepared as an aqueous 100 mM stock solution.

[2] = target: T2, recombinant α4β3 receptors (Homo sapiens, UniProt P28472+P48169); test: Muscimol currents, two electrode voltage clamp in Xenopus oocytes, α4β3; assay type: cell-based; conditions: α4β3‐injected oocytes, without δ
T2 construct: expressed in transfected cells; host or cells: Xenopus laevis oocytes injected with cRNA
T2 sequence (P48169 36-554): as the sequence (P48169 36-554) above
T2 sequence (P28472 26-473): as the sequence (P28472 26-473) above
Text: as §1

[3] = system: different GABAAR subtypes; test: Affinity of muscimol compared with GABA across GABAAR subtypes; conditions: across the board for different GABAAR subtypes
α4β3δ receptors [4] = target: α4β3δ receptors; design: method as in Mortensen et al. 2010; conditions: recombinantly expressed α4β3δ receptors, ref Mortensen et al. 2010; read-out: muscimol EC50; cited from earlier work
α6β3δ receptors = target: α6β3δ receptors; design: method as in Stórustovu and Ebert 2006; conditions: recombinantly expressed α6β3δ receptors, ref Stórustovu and Ebert 2006; read-out: muscimol EC50; cited from earlier work
α4β3δ receptors [5] = target: α4β3δ receptors; design: method as in Stórustovu and Ebert 2006; conditions: recombinantly expressed α4β3δ receptors, ref Stórustovu and Ebert 2006; read-out: muscimol EC50; cited from earlier work
α1βγ2 GABAARs = system: α1βγ2 GABAARs; design: method as in Karim et al. 2013; conditions: ref Karim et al. 2013; cited from earlier work

NCc1cc(=O)[nH]o1 [muscimol]
EC50 ([1]; α4β3δ in Xenopus oocytes, estimated/approximate, read-out: EC50 of the high‐muscimol affinity (slowly deactivating) current component): 1 to 2 nM
threshold muscimol concentration evoking currents ([1]; α4β3δ‐injected oocytes): 0.1 nM
threshold muscimol concentration evoking currents [2]: about 30 nM
higher affinity than GABA [3]: 100–1000 times
EC50 (α4β3δ receptors [4]): 200 nM
EC50 (α6β3δ receptors): 160 nM
EC50 (α4β3δ receptors [5]): 2280 nM
EC50 (α1βγ2 GABAARs): ~1000 nM
